Measured values reported in PMC12203311, “Design, synthesis, in silico and in vitro evaluation of pyrrole–indole hybrids as dual tubulin and aromatase inhibitors with potent anticancer activities” (RSC Advances, 2025).

Key:
MOLT-4 = experiment: NCI60 five-dose screen; assay type: cell-based; settings: Homo sapiens, MOLT-4, leukemia; for CC50: read-out: LC50 (the source's name)
NCI-H226 = experiment: NCI60 five-dose screen; assay type: cell-based; settings: Homo sapiens, NCI-H226, NSC lung cancer; for CC50: read-out: LC50 (the source's name)
NCI-H322M = experiment: NCI60 five-dose screen; assay type: cell-based; settings: Homo sapiens, NSC lung cancer; for CC50: read-out: LC50 (the source's name)
HCC-2998 = experiment: NCI60 five-dose screen; assay type: cell-based; settings: Homo sapiens, HCC-2998, colon cancer; for CC50: read-out: LC50 (the source's name)
HCT-116 = experiment: NCI60 five-dose screen; assay type: cell-based; settings: Homo sapiens, HCT-116, colon cancer; for CC50: read-out: LC50 (the source's name)
KM12 = experiment: NCI60 five-dose screen; assay type: cell-based; settings: Homo sapiens, KM12, colon cancer; for CC50: read-out: LC50 (the source's name)
SW-620 = experiment: NCI60 five-dose screen; assay type: cell-based; settings: Homo sapiens, SW-620, colon cancer; for CC50: read-out: LC50 (the source's name)
SF-268 = experiment: NCI60 five-dose screen; assay type: cell-based; settings: Homo sapiens, SF-268, CNS cancer; for CC50: read-out: LC50 (the source's name)
M14 = experiment: NCI60 five-dose screen; assay type: cell-based; settings: Homo sapiens, M14, melanoma; for CC50: read-out: LC50 (the source's name)
MDA-MB-435 = experiment: NCI60 five-dose screen; assay type: cell-based, human; settings: Homo sapiens; for CC50: MDA-MB-435, MDA-MB-435, melanoma, read-out: LC50 (the source's name); for GI50: MDA-MB-435, melanoma
OVCAR-5 = experiment: NCI60 five-dose screen; assay type: cell-based; settings: Homo sapiens, OVCAR-5, ovarian cancer; for CC50: read-out: LC50 (the source's name)
786-0 = experiment: NCI60 five-dose screen; assay type: cell-based; settings: Homo sapiens, 786-0, renal cancer; for CC50: read-out: LC50 (the source's name)
A498 = experiment: NCI60 five-dose screen; assay type: cell-based; settings: Homo sapiens, A498, renal cancer; for CC50: read-out: LC50 (the source's name)
RXF 393 = experiment: NCI60 five-dose screen; assay type: cell-based; settings: Homo sapiens, RXF 393, renal cancer; for CC50: read-out: LC50 (the source's name)
UO-31 = experiment: NCI60 five-dose screen; assay type: cell-based; settings: Homo sapiens, UO-31, renal cancer
HS 578T = experiment: NCI60 five-dose screen; assay type: cell-based; settings: Homo sapiens, breast cancer; for CC50: read-out: LC50 (the source's name)
T-47D = experiment: NCI60 five-dose screen; assay type: cell-based; settings: Homo sapiens, T47D, breast cancer; for CC50: read-out: LC50 (the source's name)
MDA-MB-468 = experiment: NCI60 five-dose screen; assay type: cell-based; settings: Homo sapiens, MDA-MB-468, breast cancer; for CC50: read-out: LC50 (the source's name)
Human CYP19 (aromatase) = target: T1, Human CYP19 (aromatase) (Homo sapiens, UniProt P11511); experiment: Aromatase inhibition assay (DBF fluorometric substrate); assay type: biochemical; settings: active defined as IC50 < 12.5 µM
T1 construct: purchased GENTEST, Woburn, MA 456260; host or cells: baculovirus/insect cells
T1 sequence (P11511 1-503): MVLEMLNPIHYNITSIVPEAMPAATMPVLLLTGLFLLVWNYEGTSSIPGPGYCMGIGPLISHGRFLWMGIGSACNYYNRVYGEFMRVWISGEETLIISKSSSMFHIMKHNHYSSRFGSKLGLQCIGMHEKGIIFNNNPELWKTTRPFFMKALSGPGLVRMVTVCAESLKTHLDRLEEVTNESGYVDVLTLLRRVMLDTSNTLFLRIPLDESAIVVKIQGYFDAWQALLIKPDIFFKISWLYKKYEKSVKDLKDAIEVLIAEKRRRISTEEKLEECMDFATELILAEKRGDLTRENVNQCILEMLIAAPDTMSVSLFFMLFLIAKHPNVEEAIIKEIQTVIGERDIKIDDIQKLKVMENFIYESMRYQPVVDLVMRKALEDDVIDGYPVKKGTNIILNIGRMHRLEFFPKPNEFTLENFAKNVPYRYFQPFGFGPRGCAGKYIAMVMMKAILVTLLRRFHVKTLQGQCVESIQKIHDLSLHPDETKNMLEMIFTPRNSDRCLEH
Method: Aromatase enzyme was purchased from GENTEST, Woburn, MA01801, USA (Supersom human CYP19+oxidoreductase, baculovirus/insect cell-expressed; Product No. 456260). The aromatase inhibitory activity was performed using Human CYP19 enzymes and DBF as a fluorometric substrate as described by Stresser, et al.[41] with minor modifications. The mixture, containing 100 µL of cofactor/serial dilution buffer was pre-incubated in 37 °C for 10 min. […] After incubation at 37 °C for 30 min, the reaction was stopped by addition of 50 µL of 2.2 M NaOH. Fluorescence signal was monitored using an excitation wavelength of 490 nm and emission wavelength of 530 nm.

[1] = system: T47D breast cancer cell line; experiment: Cytotoxicity MTT assay, T47D; assay type: cell-based, human; settings: 10 µM and 50 µM
Method: T47D (ATCC HTB-133) was purchased from Biomedia (Thailand) Co., LTD. L929 (ATCC CCL-1) was received as a gift from Prof. Tanapat Palaga, Department of Microbiology, Faculty of Science, Chulalongkorn University, Bangkok, Thailand. The cells were cultured in Dulbecco's Modified Eagle's Medium (DMEM; Gibco) supplemented with 10% fetal bovine serum (FBS; HyClone), 100 U mL^−1 penicillin and 100 µg mL^−1 streptomycin (Gibco) at 37 °C with 5% CO2.
The antiproliferative activity was determined by MTT assay. Briefly, the cells were plated into a 96-well microplate at the density of 10 000 cells per well. The cells were allowed to grow overnight before treated with the solutions of compounds in culture medium at the designated concentrations for 48 hours. The medium was then replaced with MTT solution (0.5 mg mL^−1 MTT in culture medium) and incubated for 3 hours. A 100 µL of DMSO was used to dissolve the produced formazan. Absorbance at 570 nm was then measured using a microplate reader (Varioskan™ LUX multimode microplate reader, Thermo Scientific™). Percent viability was calculated relative to the vehicle control (DMSO).

Structure (SMILES)	GI50 (MOLT-4) [µM]	CC50 (MOLT-4) [µM]	GI50 (NCI-H226) [µM]	CC50 (NCI-H226) [µM]	GI50 (NCI-H322M) [µM]	CC50 (NCI-H322M) [µM]	GI50 (HCC-2998) [µM]	CC50 (HCC-2998) [µM]	GI50 (HCT-116) [µM]	CC50 (HCT-116) [µM]	GI50 (KM12) [µM]	CC50 (KM12) [µM]	GI50 (SW-620) [µM]	CC50 (SW-620) [µM]	GI50 (SF-268) [µM]	CC50 (SF-268) [µM]	GI50 (M14) [µM]	CC50 (M14) [µM]	CC50 (MDA-MB-435) [µM]	GI50 (MDA-MB-435) [µM]	further results
O=C(N/N=C/c1cc[nH]c1)c1[nH]c2ccc(Br)cc2c1-c1ccccc1 [Derivative 3b, (E)-N′-((1H-Pyrrol-3-yl)methylene)-5-bromo-3-phenyl-1H-indole-2-carbohydrazide]	1.52	> 100	2.52	51.2	2.38	37.2	1.55	32.7	0.991	> 100	0.996	37.8	0.548	49.4	2.41	59.1	1.58	45.8	15.8	0.463	GI50 (OVCAR-5): 1.74 µM; CC50 (OVCAR-5): 38.5 µM; GI50 (786-0): 5.46 µM; CC50 (786-0): 77.2 µM; GI50 (A498): 12.7 µM; CC50 (A498): 54.6 µM; GI50 (RXF 393): 1.78 µM; CC50 (RXF 393): 46.5 µM; GI50 (UO-31): 1.66 µM; CC50 (UO-31; read-out: LC50 (the source's name)): 41 µM; GI50 (HS 578T): 1.31 µM; CC50 (HS 578T): > 100 µM; GI50 (T-47D): 3.49 µM; CC50 (T-47D): > 100 µM; GI50 (MDA-MB-468): 0.593 µM; CC50 (MDA-MB-468): 24.2 µM; IC50 (Human CYP19 (aromatase)): 11 ± 1.3 µM; activity against T47D in two-dose screen [1]: weak activity
O=C(N/N=C/c1ccc([N+](=O)[O-])[nH]1)c1[nH]c2ccc(Br)cc2c1-c1ccccc1 [Derivative 3p, (E)-5-Bromo-N′-((5-nitro-1H-pyrrol-2-yl)methylene)-3-phenyl-1H-indole-2-carbohydrazide]	0.537	> 100	2.43	46.9	11	53.3	1.67	19.6	0.439	33.8	1.17	34.2	0.249	48.4	1.47	44.2	0.652	37	29.8	0.253	GI50 (OVCAR-5): 2.87 µM; CC50 (OVCAR-5): 40.9 µM; GI50 (786-0): 0.803 µM; CC50 (786-0): 41.4 µM; GI50 (A498): 2.6 µM; CC50 (A498): 43.7 µM; GI50 (RXF 393): 0.411 µM; CC50 (RXF 393): 41.2 µM; GI50 (HS 578T): 0.27 µM; CC50 (HS 578T): 94.3 µM; GI50 (T-47D): 2.4 µM; CC50 (T-47D): 59.6 µM; GI50 (MDA-MB-468): 0.873 µM; CC50 (MDA-MB-468): 34.7 µM; IC50 (Human CYP19 (aromatase)): 1.4 ± 0.3 µM; activity against T47D in two-dose screen [1]: weak activity
O=C(N/N=C/c1cc([N+](=O)[O-])c[nH]1)c1[nH]c2ccc(Br)cc2c1-c1ccccc1 [Derivative 3q, (E)-5-Bromo-N′-((4-nitro-1H-pyrrol-2-yl)methylene)-3-phenyl-1H-indole-2-carbohydrazide]	0.657	> 100	3.39	> 100	46.4	> 100	3.66	> 100	0.491	> 100	1.39	> 100	0.38	> 100	0.774	> 100	0.574	> 100	8.78	0.226	GI50 (OVCAR-5): 5.37 µM; CC50 (OVCAR-5): > 100 µM; GI50 (786-0): 2.21 µM; CC50 (786-0): > 100 µM; GI50 (A498): 10.7 µM; CC50 (A498): > 100 µM; GI50 (RXF 393): 0.734 µM; CC50 (RXF 393): > 100 µM; GI50 (HS 578T): 0.486 µM; CC50 (HS 578T): > 100 µM; GI50 (T-47D): 2.21 µM; CC50 (T-47D): > 100 µM; GI50 (MDA-MB-468): 0.503 µM; CC50 (MDA-MB-468): > 100 µM; IC50 (Human CYP19 (aromatase)): > 12.5 µM; aromatase inhibition (Human CYP19 (aromatase)): inactive against aromatase; activity against T47D in two-dose screen [1]: weak activity
